Columns and labels:
flank organ hair growth = assay: Golden Syrian hamster assay (flank organ hair mass after topical treatment); type: in vivo; conditions: thirteen applications
From the text: Male intact Golden Syrian hamsters are considered acceptable models for human beard hair growth in that they display oval shaped flank organs, one on each side, each about 8 mm in major diameter, which grow thick black and coarse hair similar to human beard hair. These organs produce hair in response to androgens in the hamster. To evaluate the effectiveness of a composition including a hair growth reducing compound, the flank organs of each of a group of hamsters are depilated by applying a thioglycolate based chemical depilatory (Surgex); alternatively, hair were removed by shaving the flank organs prior to topical treatments. To one organ of each animal 10 μl of vehicle alone once a day is applied, while to the other organ of each animal an equal amount of vehicle containing a hair growth reducing compound is applied. After thirteen applications (one application per day for five days a week), the flank organs are shaved and the amount of recovered hair (hair mass) from each is weighed. Percent-reduction of hair growth is calculated by subtracting the hair mass (mg) value of the test compound treated side from the hair mass value of the vehicle treated side; the delta value obtained is then divided by the hair mass value of the vehicle treated side, and the resultant number is multiplied by 100.
The above-described assay will be referred to herein as the "Golden Syrian hamster" assay. Preferred compositions provide an inhibition in hair growth of at least about 20%, more preferably at least about 40%, and most preferably at least about 60% when tested in the Golden Syrian hamster assay.

hair follicle hexokinase = assay: Hexokinase activity in hair follicle extracts; type: biochemical, hamster; conditions: concentration of 1 mM
Method: Measurement of the Hexokinase Activity was Performed as Follows
The enzyme hexokinase was extracted from the hamster hair follicles in a buffer containing Tris-HCL (0.25M, pH 8.1), 1.5 mM EDTA and 5.0 mM MgCl2. The extract was prepared in a manner similar to as described above for phosphofructokinase. The following reagents were mixed together and the change in absorbance at 340 nm was monitored to determine enzyme activity--0.5 ml of the Tris buffer, 0.1 ml ATP (5 mM), 0.1 ml phospho(enol)pyruvate and NADH (0.75 mM and 0.2 mM respectively), 0.1 ml of the follicle extract.

[1] = tested on: hair follicle phosphofructokinase; assay: Phosphofructokinase activity in hair follicle extracts; type: biochemical, hamster
Method: The activity of two target enzymes (phosphofructokinase and hexokinase) was determined in hair follicle extracts in the presence or absence of select enzyme inhibitors.
Measurement of Phosphofructokinase Activity in Hair Follicle Extracts
Hair follicles from hamster flank organs were excised and an enzyme extract was prepared in a buffered mixture containing 75 mM Tris-HCL, 3 mM MgCl2, and 15 mM (NH4)2 SO4, pH 7.5, using a sonication device. The follicle extracts were passed through a 10,000 molecular weight cut off filter by centrifugation at 12,000 x g. The unfiltered extract was transferred to another filter and a 100 ul aliquot of the magnesium buffer was added. The sample was centrifuged again under similar conditions. This procedure was repeated two additional times.
The washed extract was removed from the insert cup and assayed for phosphofructokinase activity according to the following procedure. The extract was mixed with a solution containing 2.0 ml of the magnesium buffer, 0.1 ml of fructose 6-phosphate (30 mM), 0.1 ml ATP (15 mM), 0.1 ml NADH (1.5 mM), 0.3 ml of mercatopethanol (0.1M), 0.3 ml an auxiliary enzyme mixture made up of aldose (10 units/ml), triosephosphate isomerase (8 units/ml), and α-glycerophosphate dehydrogenae (4 units/ml) in 25 mM Tris-HCI (pH 7.5). […] Change in absorbance at UV 340 nm was used to determine the enzyme activity.

[2] = 10% concentration in vehicle, topical 10 μl once a day, vehicle and pH per compound as in the Table
[3] = 10% concentration in vehicle, topical 10 μl once a day, vs vehicle treated side
[4] = 4.4% concentration, vehicle A pH 7.0, topical
[5] = 15.0% concentration, vehicle G pH 7.0, topical
[6] = 7.5% concentration, vehicle C pH 8.5, topical

Row | Molecule | Hair Mass (mg) ± SEM, Treated (flank organ hair growth; [2]) | % Inhibition (hair growth) (flank organ hair growth; [3]) [%] | further results
1 | 6-Amino-6-deoxy glucose | 0.77 ± .15 mg | 59 ± 6 | inhibition of the hair follicle hexokinase activity (hair follicle hexokinase): 46%
2 | O=C(O)C1(O)CC1 [1-Hydroxy-1-cyclopropanecarboxylic acid] | 1.80 ± .20 mg | 22 ± 9 | 
3 | O=CC[C@@H](O)[C@H](O)[C@H](O)CO [2-Deoxyglucose] | 0.96 ± .16 mg | 38 ± 7 | 
4 | O=C(O)C(=O)CF [3-Fluoropyruvic acid] | 1.14 ± .09 mg | 40 ± 5 | 
5 | Nc1ncnc2c1ncn2[C@@H]1O[C@H](COC(=O)c2ccc(S(=O)(=O)F)cc2)[C@@H](O)[C@H]1O [5'-p-Flurosuflonylbenzoyl adenosine] |  |  | % Inhibition (hair growth) (flank organ hair growth; [4]): 60 ± 3%; Hair Mass (mg) ± SEM, Treated (flank organ hair growth; [4]): 0.74 ± .05 mg
6 | O=C[C@H](O)[C@@H](O)[C@H](O)[C@H](S)CO [5-Thio-D-glucose] | 1.32 ± .20 mg | 49 ± 6 | 
7 | CCCCCCCCCCCCCCCCC(C(=O)O)C(O)(CC(=O)O)C(=O)O (centres unmarked) [Argaric acid] | 0.97 ± .14 mg | 52 ± 4 | inhibition of the hair follicle phosphofructokinase activity ([1]; concentration of 0.15 mM): 76%
8 | O=C(O)C(=O)CBr [Bromopyruvic acid] | 1.10 ± .11 mg | 58 ± 6 | 
9 | O=C(O)[C@H](O)COP(=O)(O)O [D(-)3-Phosphoglyceric acid] | 2.27 ± .22 mg | 21 ± 7 | 
10 | O=C(O)c1cc(=O)c2ccccc2[nH]1 [Kynurenic acid] | 0.98 ± .09 mg | 64 ± 4 | 
11 | N[C@@H]1C(O)O[C@H](CO)[C@@H](O)[C@@H]1O (some centres unmarked) [Mannosamine] | 0.71 ± .13 mg | 68 ± 6 | inhibition of the hair follicle hexokinase activity (hair follicle hexokinase): 100%
12 | CC(=O)N[C@H]1[C@@H](O)[C@H](O)[C@@H](CO)O[C@H]1O [N-Acetyl-β-D-mannosamine] | 0.79 ± .15 mg | 65 ± 7 | inhibition of the hair follicle hexokinase activity (hair follicle hexokinase): 100%
13 | Cc1ccc(S(=O)(=O)N[C@@H](CCCCN)C(=O)CCl)cc1 [N-α-(p-Tosyl)-L-lysine chloromethyl ketone] | 0.48 ± .11 mg | 81 ± 4 | inhibition of the hair follicle hexokinase activity (hair follicle hexokinase): 100%
14 | O=C(O)C(=O)Cc1ccccc1 [Phenylpyruvic acid] | 0.92 ± .21 mg | 54 ± 10 | 
15 | O=C(CCc1ccc(O)cc1)c1c(O)cc(O)cc1O [Phloretin] |  |  | % Inhibition (hair growth) (flank organ hair growth; [5]): 35 ± 7%; Hair Mass (mg) ± SEM, Treated (flank organ hair growth; [5]): 1.34 ± .11 mg
16 | O=C(O)COP(=O)(O)O [Phosphogylcolic acid] | 0.57 ± .09 mg | 66 ± 5 | inhibition of the hair follicle phosphofructokinase activity ([1]; concentration of 0.9 mM): 45%
17 | O=C(O)c1ccc2ccccc2n1 [Quinaldic Acid] | 0.62 ± .08 mg | 69 ± 4 | 
18 | O=C(O)c1cc(O)c2cccc(O)c2n1 [Xanthurenic acid] |  |  | % Inhibition (hair growth) (flank organ hair growth; [6]): 59 ± 4%; Hair Mass (mg) ± SEM, Treated (flank organ hair growth; [6]): 1.26 ± .13 mg
19 | N#CC(=Cc1ccc(O)cc1)C(=O)O [α-Cyano-4-hydroxycinnamic acid] | 0.87 ± .34 mg | 49 ± 17 | 

Reference: patent US5824665A, “Reduction of hair growth” (priority 1997, dated 1998)
